Among the data in US10947227B2, “Tricyclic heterocyclic compounds as sting activators” (Incyte Corporation, priority 2018, dated 2021) are EC50 values, retold here.

The assay deals with IRF3 activation in THP-1 Dual Cells. The assay can be described thus: IRF3 activation assay in THP-1 Dual Cells (QUANTI-Blue readout). The assay is classed as cell-based. The settings on record: Homo sapiens, THP1-Dual, 24 h, Table 2, 24 hours incubation. The gist of the method: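 THP-1 Dual cells (100,000/well) were incubated with serially diluted compounds 24 h at 37 °C. […]; EC50 from percent control activity versus log concentration.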
The term EC50 denotes the concentration that produces a half-maximal response. Higher therefore signals a less potent agent. For the compound `CCn1nc(C)cc1C(=O)Nc1nc2cc(C(N)=O)cc(OC)c2n1C/C=C/Cn1c2nc(-c3cc(C)nn3CC)ncc2c2cc(C(N)=O)cc(OCCCNC(=O)OCCC(=O)O)c21` [Example 47, (E)-3-(3-(6-carbamoyl-9-(4-(5-carbamoyl-2-(1-ethyl-3-methyl-1H-pyrazole-5-carboxamido)-7-methoxy-1H-benzo[d]imidazol-1-yl)but-2-enyl)-2-(1-ethyl-3-methyl-1H-pyrazol-5-yl)-9H-pyrimido[4,5-b]indol-8-yloxy)propylcarbamoyloxy)propanoic Acid], the EC50 is < 50 nM. Next, `CCn1nc(C)cc1C(=O)Nc1nc2cc(C(N)=O)cc(OCCCO)c2n1C/C=C/Cn1c2nc(-c3cc(C)nn3CC)ncc2c2cc(C(N)=O)cc(OCCCNC(=O)CCCC(=O)O)c21` [Example 48, (E)-5-(3-(6-carbamoyl-9-(4-(5-carbamoyl-2-(1-ethyl-3-methyl-1H-pyrazole-5-carboxamido)-7-(3-hydroxypropoxy)-1H-benzo[d]imidazol-1-yl)but-2-enyl)-2-(1-ethyl-3-methyl-1H-pyrazol-5-yl)-9H-pyrimido[4,5-b]indol-8-yloxy)propylamino)-5-oxopentanoic Acid]: < 50 nM. For the compound `CCn1nc(C)cc1C(=O)Nc1nc2cc(C(N)=O)cc(OCCCO)c2n1C/C=C/Cn1c2nc(-c3cc(C)nn3CC)ncc2c2cc(C(N)=O)cc(OCCCNC(=O)OCCC(=O)O)c21` [Example 49, (E)-3-(3-(6-carbamoyl-9-(4-(5-carbamoyl-2-(1-ethyl-3-methyl-1H-pyrazole-5-carboxamido)-7-(3-hydroxypropoxy)-1H-benzo[d]imidazol-1-yl)but-2-enyl)-2-(1-ethyl-3-methyl-1H-pyrazol-5-yl)-9H-pyrimido[4,5-b]indol-8-yloxy)propylcarbamoyloxy)propanoic Acid], the EC50 is < 50 nM. Next, `CCn1nc(C)cc1C(=O)Nc1nc2cc(C(N)=O)cc(OCCCOC)c2n1C/C=C/Cn1c2nc(-c3cc(C)nn3CC)ncc2c2cc(C(N)=O)cc(OCCCNC(=O)CCCC(=O)O)c21` [Example 50, (E)-5-(3-(6-carbamoyl-9-(4-(5-carbamoyl-2-(1-ethyl-3-methyl-1H-pyrazole-5-carboxamido)-7-(3-methoxypropoxy)-1H-benzo[d]imidazol-1-yl)but-2-enyl)-2-(1-ethyl-3-methyl-1H-pyrazol-5-yl)-9H-pyrimido[4,5-b]indol-8-yloxy)propylamino)-5-oxopentanoic Acid]: < 50 nM. Next, `CCn1nc(C)cc1C(=O)Nc1nc2cc(C(N)=O)cc(OCCCOC)c2n1C/C=C/Cn1c2nc(-c3cc(C)nn3CC)ncc2c2cc(C(N)=O)cc(OCCCNC(=O)OCCC(=O)O)c21` [Example 51, (E)-3-(3-(6-carbamoyl-9-(4-(5-carbamoyl-2-(1-ethyl-3-methyl-1H-pyrazole-5-carboxamido)-7-(3-methoxypropoxy)-1H-benzo[d]imidazol-1-yl)but-2-enyl)-2-(1-ethyl-3-methyl-1H-pyrazol-5-yl)-9H-pyrimido[4,5-b]indol-8-yloxy)propylcarbamoyloxy)propanoic Acid]: < 50 nM; `CCn1nc(C)cc1C(=O)Nc1nc2cc(C(N)=O)cc(OCCCOC)c2n1C/C=C/Cn1c2nc(-c3cc(C)nn3CC)ncc2c2cc(C(N)=O)cc(OCCCOC(=O)NCCC(=O)O)c21` [Example 52, (E)-3-((3-(6-carbamoyl-9-(4-(5-carbamoyl-2-(1-ethyl-3-methyl-1H-pyrazole-5-carboxamido)-7-(3-methoxypropoxy)-1H-benzo[d]imidazol-1-yl)but-2-enyl)-2-(1-ethyl-3-methyl-1H-pyrazol-5-yl)-9H-pyrimido[4,5-b]indol-8-yloxy)propoxy)carbonylamino)propanoic Acid]: 50 to 200 nM. Then `CCn1nc(C)cc1C(=O)Nc1nc2cc(C(N)=O)cc(OCCCOC)c2n1C/C=C/Cn1c2nc(-c3cc(C)nn3CC)ncc2c2cc(C(N)=O)cc(OCCOCCOCCC(=O)O)c21` [Example 53, (E)-3-(2-(2-(6-carbamoyl-9-(4-(5-carbamoyl-2-(1-ethyl-3-methyl-1H-pyrazole-5-carboxamido)-7-(3-methoxypropoxy)-1H-benzo[d]imidazol-1-yl)but-2-enyl)-2-(1-ethyl-3-methyl-1H-pyrazol-5-yl)-9H-pyrimido[4,5-b]indol-8-yloxy)ethoxy)ethoxy)propanoic Acid], with 50 to 200 nM. For `CCn1nc(C)cc1C(=O)Nc1nc2cc(C(N)=O)cc(OCCCOC)c2n1C/C=C/Cn1c2nc(-c3cc(C)nn3CC)ncc2c2cc(C(N)=O)cc(OCCOCCOCCOCCC(=O)O)c21` [Example 54, (E)-3-(2-(2-(2-(6-carbamoyl-9-(4-(5-carbamoyl-2-(1-ethyl-3-methyl-1H-pyrazole-5-carboxamido)-7-(3-methoxypropoxy)-1H-benzo[d]imidazol-1-yl)but-2-enyl)-2-(1-ethyl-3-methyl-1H-pyrazol-5-yl)-9H-pyrimido[4,5-b]indol-8-yloxy)ethoxy)ethoxy)ethoxy)propanoic Acid], the concentration giving a half-maximal response (EC50) lay in the range of 50 to 200 nM.

Compound `CCn1nc(C)cc1C(=O)Nc1nc2cc(C(N)=O)cc(OC)c2n1C/C=C/Cn1c2nc(-c3cc(C)nn3CC)ncc2c2cc(C(N)=O)cc(OCCC3CCN(CCCC(=O)O)CC3)c21` [Example 55, (E)-4-(4-(2-(6-carbamoyl-9-(4-(5-carbamoyl-2-(1-ethyl-3-methyl-1H-pyrazole-5-carboxamido)-7-methoxy-1H-benzo[d]imidazol-1-yl)but-2-enyl)-2-(1-ethyl-3-methyl-1H-pyrazol-5-yl)-9H-pyrimido[4,5-b]indol-8-yloxy)ethyl)piperidin-1-yl)butanoic Acid] came in with a concentration for a half-maximal effect (EC50) of 50 to 200 nM. Then `CCn1nc(C)cc1C(=O)Nc1nc2cc(C(N)=O)cc(OC)c2n1C/C=C/Cn1c2nc(-c3cc(C)nn3CC)ncc2c2cc(C(N)=O)cc(OCCC3CCN(C(=O)OCC(=O)O)CC3)c21` [Example 56, (E)-2-(4-(2-(6-carbamoyl-9-(4-(5-carbamoyl-2-(1-ethyl-3-methyl-1H-pyrazole-5-carboxamido)-7-methoxy-1H-benzo[d]imidazol-1-yl)but-2-enyl)-2-(1-ethyl-3-methyl-1H-pyrazol-5-yl)-9H-pyrimido[4,5-b]indol-8-yloxy)ethyl)piperidine-1-carbonyloxy)acetic Acid], with 50 to 200 nM; and `CCn1nc(C)cc1C(=O)Nc1nc2cc(C(N)=O)cc(OCCCO)c2n1C/C=C/Cn1c2nc(-c3cc(C)nn3CC)ncc2c2cc(C(N)=O)cc(OCCCOC(=O)NCCC(=O)O)c21` [Example 57, (E)-3-((3-(6-carbamoyl-9-(4-(5-carbamoyl-2-(1-ethyl-3-methyl-1H-pyrazole-5-carboxamido)-7-(3-hydroxypropoxy)-1H-benzo[d]imidazol-1-yl)but-2-enyl)-2-(1-ethyl-3-methyl-1H-pyrazol-5-yl)-9H-pyrimido[4,5-b]indol-8-yloxy)propoxy)carbonylamino)propanoic Acid], with 50 to 200 nM.

Consider `CCn1nc(C)cc1C(=O)Nc1nc2cc(C(N)=O)cc(OCCCOC(=O)NCCC(=O)O)c2n1C/C=C/Cn1c2nc(-c3cc(C)nn3CC)ncc2c2cc(C(N)=O)cc(OCCOCCOCCC(=O)O)c21` [Example 58, (E)-3-(((3-((5-carbamoyl-1-(4-(6-carbamoyl-8-(2-(2-(2-carboxyethoxy)ethoxy)ethoxy)-2-(1-ethyl-3-methyl-1H-pyrazol-5-yl)-9H-pyrimido[4,5-b]indol-9-yl)but-2-en-1-yl)-2-(1-ethyl-3-methyl-1H-pyrazole-5-carboxamido)-1H-benzo[d]imidazol-7-yl)oxy)propoxy)carbonyl)amino)propanoic Acid], for which the 50% effective concentration (EC50) lay in the range of 200 to 500 nM.
